Results reported in publication PMC12250170, “Synthesis of Novel Podophyllotoxin–Benzothiazole Congeners and Their Biological Evaluation as Anticancer Agents” (International Journal of Molecular Sciences, 2025).
Like-named read-outs stand apart in the source and are kept apart here.

What was measured:
[1] = system: B16F10 (murine melanoma) cells; assay: In vitro cytotoxicity, PrestoBlue assay, B16F10; format: cell-based; settings: read-out: IC50 ± SD, B16F10
Method: (§1) The synthesized compounds were tested and evaluated for their cytotoxicity using an in vitro cytotoxicity assay. We studied five cancer cell lines and one non-cancerous cell line. The cells were purchased from the American Type Culture Collection (ATCC), United States, including HeLa (cervical), LoVo (colorectal), MCF-7 (breast), SKOV3 (ovarian), B16F10 (murine melanoma), and HaCaT (human keratinocyte). Dulbecco’s modified Eagle’s medium (containing 10% FBS) was used to culture HeLa, MCF-7, B16F10, and HaCaT cells, while RPMI 1640 medium (containing 10% FBS) was used for SKOV3 and LoVo cells. The cells were cultured in 25 cm^2 culture flasks (Corning, Corning, NY, USA) in a humidified atmosphere of 5% CO2 at 37 °C and passaged every three days with standard Trypsin-EDTA solution (Gibco, Thermo Fisher Scientific, Waltham, MA, USA). All compounds were initially prepared as stock solutions at a concentration of 10 mM (in DMSO). Serial dilutions were performed in the indicated medium to achieve the required concentration gradient of compounds (20 µM, 10 µM, 5 µM, 2.5 µM, 1.25 µM, 0.625 µM, 0.312 µM). The maximum percentage of DMSO used in the compound solutions was 0.1%, based on the procedure previously described by our group.
(§2) The PrestoBlue assay was performed according to the method previously reported by Strus et al.. The cells (LoVo and B16F10) were seeded in the indicated medium in a 96-well culture plate (Nest Biotechnology) at a density of 1 × 10^4 cells per well (100 µL) and incubated at 37 °C in a 5% CO2 atmosphere. After 24 h of incubation, 100 µL aliquots of the compounds in medium were added to each well, and the cells were further incubated for 48 h. After 48 h, the old medium was removed, and 100 µL of fresh medium was added. Then, 10 µL of PrestoBlue solution (Thermo Fisher Scientific, Waltham, MA, USA) was added to each well and incubated for 60 min. The fluorescence intensity was measured with excitation at 544 nm and emission at 615 nm using a Fluorstar microplate reader (BMG Labtech, Ortenberg, Germany). The results were expressed as a percentage of the intensity relative to that of control cells (non-treated cells).
(§3) Data analysis was carried out using GraphPad Prism 5.0.3. Calculations were performed using MS-Excel version 2021. The cytotoxic effect was expressed as the relative viability of treated cells (percentage growth control) and was calculated as follows: % relative viability = Ae−Ab/Ac−Ab×100% , where Ae is experimental absorbance/fluorescence intensity, Ac is the absorbance/ fluorescence intensity of growth control (only cells with medium), and Ab is the absorbance/fluorescence intensity of a blank (only medium). The IC50 values were obtained by using the sigmoidal dose–response function in GraphPad Prism. The results were expressed as mean ± standard deviation (SD).

[2] = system: MCF-7 (breast cancer) cells; assay: In vitro cytotoxicity, crystal violet assay, MCF-7; format: cell-based, human
Method: as §1
(§4) This assay was performed in reference to the method already described. In brief, the cell lines (HeLa, MCF-7, and SKOV-3) were seeded in the indicated medium in a 96-well culture plate (Nest Biotechnology, Wuxi, China) at a density of 1 × 10^4 cells per well (100 µL) in quadruplicates and then incubated at 37 °C in a 5% CO2 atmosphere. After 24 h of incubation, 100 µL aliquots of the compounds in medium at increasing concentrations were added to each well, and the cells were further incubated for 48 h. After the incubation period, the cells were washed with PBS twice, and then with 70% ethanol, followed by staining with 0.05% crystal violet solution in water (ChemPur, Piekary Slaskie, Poland) for 20 min. The excess crystal violet was washed out with distilled water several times. The stained cells then solubilized in 1% Triton™ X-100 Surfact-Amps (POCH SA, Gliwice, Poland) or 10% PBS. The absorbance of each well was measured using Fluostar plate reader at […].
as §3

[3] = system: HeLa (cervix cancer) cells; assay: In vitro cytotoxicity, crystal violet assay, HeLa; format: cell-based, human
Method: as §1, §4, §3

HeLa cells = assay: Cell cycle analysis by flow cytometry (propidium iodide); format: cell-based, human; settings: concentration and time not given
Method: To determine the possible mechanisms of compounds 7 and 11 in inhibiting the proliferation of cancer cells, cell cycle analysis was performed with the flow cytometry method, as shown in Figure 3. Compound 7 was previously reported to inhibit proliferation of HaCaT cells via cell cycle arrest in G2/M [18]. As a reference, HeLa cells were treated with the indicated concentrations of compounds 7 and 11 for 24 h and 48 h, and the cell cycle phases distribution of treated cells was determined with the propidium iodide (PI) method, as previously described. The effects of novel podophyllotoxin derivatives on cell cycle phase distribution were evaluated in cells exposed to these compounds for 24 h or 48 h. Three compounds were compared: podophyllotoxin 1, KL-3 derivative 7, and its analog lacking the ester group 11.
For cell cycle analysis, HeLa cells were treated for 24 or 48 h with compounds 7 and 11 at concentrations of 5 µM and 10 µM. After the incubation period, the cells were fixed in a freezing medium (ice-cold 70% ethanol solution in PBS) and stored at −20 °C. The cell suspension was then centrifuged, washed with PBS, and resuspended in PBS containing 200 µg of DNase-free RNase A (Sigma) for 20 min at room temperature. Propidium iodide (Sigma) was added to a final concentration of 5 µg/mL, and the cells were stained for at least 2 h at 4 °C. The analysis was performed using a FACSCalibur flow cytometer (Becton Dickinson, San Diego, CA, USA) and analyzed with CellQuest software, v.3.3.

[4] = system: HaCaT (human keratinocyte) cells; assay: In vitro cytotoxicity, PrestoBlue assay, HaCaT (non-tumorigenic); format: cell-based; settings: 48 h, read-out: IC50 ± SD, HaCaT
[5] = system: LoVo (colorectal cancer) cells; assay: In vitro cytotoxicity, PrestoBlue assay, LoVo; format: cell-based, human; settings: 48 h, read-out: IC50 ± SD, LoVo
Method: as §1, §2, §3

[6] = system: SKOV-3 (ovarian cancer) cells; assay: In vitro cytotoxicity, crystal violet assay, SKOV-3; format: cell-based, human
Method: as §1, §4, §3

[7] = system: cancer cell lines (MCF-7, SKOV-3, B16F10, LOVO, and HeLa) and HaCaT; assay: In vitro cytotoxicity assay, results summarised over the cell line panel; format: cell-based; settings: for Cytotoxicity in words: all tested cell lines
Method: The cytotoxicity properties of semi-synthesized compounds 7–15 was evaluated against five types of cancer cell lines including, human: HeLa (cervix cancer), LoVo (colorectal cancer), MCF-7 (breast cancer), SKOV-3 (ovarian cancer), and murine: B16F10 (malignant melanoma). Thus, various human tumor cell lines representing major types of malignant cancers were included in the study protocol. Non-tumorigenic HaCaT cells were used as a representative model of normal (non-cancerous) cells. The crystal violet assay and PrestoBlue assay were used to evaluate the cytotoxic/cytostatic effect. We also included the cytotoxicity data of podophyllotoxin and etoposide as reference values.
as §1, §4, §2
Data analysis was carried out using GraphPad Prism 5.0.3. Calculations were performed using MS-Excel version 2021. […]

[8] = Homo sapiens, MCF7; MCF-7, crystal violet assay, 48 h; read-out: IC50 ± SD, MCF-7
[9] = Homo sapiens; HeLa, crystal violet assay, 48 h; read-out: IC50 ± SD, HeLa
[10] = Homo sapiens, SK-OV-3; SKOV-3, crystal violet assay, 48 h; read-out: IC50 ± SD, SKOV-3
[11] = Homo sapiens, MCF7, 48 h, MCF-7, crystal violet assay, read-out: IC50 ± SD, MCF-7
[12] = Homo sapiens, HeLa, 48 h, HeLa, crystal violet assay, 48 h; read-out: IC50 ± SD, HeLa
[13] = Homo sapiens, SK-OV-3, 48 h, SKOV-3, crystal violet assay, read-out: IC50 ± SD, SKOV-3
[14] = MCF-7, crystal violet assay, 48 h; read-out: IC50 ± SD, MCF-7
[15] = HeLa, crystal violet assay, 48 h; read-out: IC50 ± SD, HeLa
[16] = SKOV-3, crystal violet assay, 48 h; read-out: IC50 ± SD, SKOV-3

Row | Structure (SMILES) | IC50 ([1]; Mus musculus, B16-F10, 48 h) [µM] | IC50 [2, 8] [µM] | IC50 [3, 9] [µM] | Selectivity Index (SI) ([3]; SI = IC50HaCaT/IC50HeLa) | IC50 ([4]; Homo sapiens) [µM] | IC50 ([5]; Homo sapiens) [µM] | IC50 [6, 10] [µM] | IC50 [2, 11] [µM] | IC50 [3, 12] [µM] | IC50 [6, 13] [µM] | Cytotoxicity in words [7] | other results
1 | COc1cc([C@@H]2c3cc4c(cc3[C@H](O)[C@H]3COC(=O)[C@H]23)OCO4)cc(OC)c1OC [Compound 1, Podophyllotoxin] | 0.092 ± 0.05 | 0.0039 ± 0.0005 | 0.0089 ± 0.0003 | 0.52 | 0.0046 ± 0.0006 | 0.033 ± 0.0077 | 0.017 ± 0.0028 | – | – | – | – | Cells arrested in the G2/M phase (HeLa cells): approximately 90%
2 | COc1cc([C@@H]2c3cc4c(cc3[C@@H](O[C@@H]3O[C@@H]5CO[C@@H](C)O[C@H]5[C@H](O)[C@H]3O)[C@H]3COC(=O)[C@H]23)OCO4)cc(OC)c1O [Compound 2, etoposide, reference compound] | 6.68 ± 2.32 | – | – | 0.23 | 1.32 ± 0.16 | 2.48 ± 0.47 | – | 0.31 ± 0.017 | 5.73 ± 1.48 | 3.15 ± 0.38 | – | –
3 | COC(=O)C1C(c2nc3ccccc3s2)=Cc2cc3c(cc2C1c1cc(OC)c(OC)c(OC)c1)OCO3 (stereo not drawn) [Compound 7] | – | – | – | 1.26 | – | – | – | – | – | – | – | IC50 ([1]; 48 h): 1.78 ± 0.55 µM; IC50 [2, 14]: 0.59 ± 0.05 µM; IC50 ([7]; MCF-7, SKOV-3, B16F10, LOVO, HeLa, read-out: IC50, range over all tested cancer cell lines): 0.68 to 2.88 µM; IC50 [3, 15]: 0.68 ± 0.05 µM; Cells arrested in the G2/M phase (HeLa cells): approximately 90%; IC50 [4]: 0.86 ± 0.05 µM; IC50 [5]: 0.83 ± 0.08 µM; IC50 [6, 16]: 1.1 ± 0.13 µM
4 | COC(=O)[C@H]1C(c2nc3cc(C(F)(F)F)ccc3s2)=Cc2cc3c(cc2[C@H]1c1cc(OC)c(OC)c(OC)c1)OCO3 [Compound 8] | > 20 | – | – | – | > 20 | > 20 | – | > 20 | > 20 | > 20 | inactive | –
5 | COC(=O)C1C(c2nc3cc(Cl)ccc3s2)=Cc2cc3c(cc2C1c1cc(OC)c(OC)c(OC)c1)OCO3 (stereo not drawn) [Compound 9] | > 20 | 2.02 ± 0.11 | 1.81 ± 0.13 | 7.31 | 13.2 ± 2.89 | 11.1 ± 2.55 | 10.4 ± 0.73 | – | – | – | – | IC50 ([7]; read-out: IC50, range over HeLa and MCF-7): 1.81 to 2.02 µM
6 | COC(=O)C1C(c2nc3ccccc3s2)=Cc2cc3c(cc2C1c1cc(OC)c(OC)c(OC)c1)OCO3 (stereo not drawn) [Compound 10] | – | – | – | – | – | – | – | – | – | – | no cytotoxicity | IC50 ([1]; 48 h): > 20 µM; IC50 [2, 14]: > 20 µM; IC50 [3, 15]: > 20 µM; IC50 [4]: > 20 µM; IC50 [5]: > 20 µM; IC50 [6, 16]: > 20 µM
7 | COC(=O)c1c(-c2nc3ccccc3s2)cc2cc3c(cc2c1-c1cc(OC)c(OC)c(OC)c1)OCO3 [Compound 12] | > 20 | – | – | – | > 20 | > 20 | – | > 20 | > 20 | > 20 | no effect | –
8 | COc1cc([C@@H]2c3cc4c(cc3C=C(c3nc5ccccc5s3)[C@@H]2CO)OCO4)cc(OC)c1OC [Compound 13] | > 20 | > 20 | > 20 | – | > 20 | > 20 | > 20 | – | – | – | no effect | –
9 | COC(=O)[C@H]1C(c2nc3ccccc3s2)=Cc2cc(O)c(O)cc2[C@H]1c1cc(OC)c(O)c(OC)c1 [Compound 14] | > 20 | – | – | <1 | 13.1 ± 1.75 | 11.7 ± 1.02 | – | 11.9 ± 1.75 | > 20 | 15.3 ± 1.31 | – | –
10 | COC(=O)[C@H]1C(c2nc3ccccc3s2)=Cc2cc3c(cc2[C@H]1c1cc(OC)c(O)c(OC)c1)OCO3 [Compound 15] | 3.76 ± 0.49 | 3.44 ± 0.81 | 2.49 ± 0.25 | 3.05 | 7.59 ± 0.76 | 10.9 ± 0.95 | 3.73 ± 0.75 | – | – | – | – | IC50 ([7]; read-out: IC50, range over all the cell lines tested, except for LoVo cells): 2.49 to 3.76 µM
